Data on one compound can be found in patent US20250213587A1, “ITK INHIBITORS FOR INCREASING TH1 CELL ACTIVITY” (Corvus Pharmaceuticals, Inc., priority 2022, published 2025).

Test [1] concerns IFNγ production by CD4+ T cells. The experiment in a line: T cell activation, IFNγ+CD4+ T cells. Type of test: cell-based, human. How it is done:
Fresh PBMCs from healthy human donors were centrifuged and reconstituted at 0.312×10^6 cells/mL in RPMI 1640 medium+10% heat-inactivated FBS+1× penicillin streptomycin and 100,000 cells/well were distributed into 24 well tissue culture plate. Cells were incubated at 37° C. for 1 hour, followed by the addition of CPI 596 or vehicle. The cells were then incubated at 37° C. for 1 hour, followed by the addition of […] anti CD3 and anti CD28 (both eBioscience). Cells were incubated at 37° C. for 6 days, with supplemental media supplied on day 3. On Day 6, the cells were transferred to a 96 deep well plate, washed, and treated with 50 nM phorbol 12-myristate 13-acetate, 1 μg/mL ionomycin, and 1 μg/mL brefeldin A, and then incubated at 37° C. for 4 hours. The cells were then fixed and permeabilized using eBioscience Fox3/transcription factor staining buffer. Cells were treated with Fc block (BioLegend) and then stained with CD3 BV605, CD45RA PerCP-Cy5.5, Tbet PE, IFNγ AF488, IL-4 APC (BioLegend), CD4 PE-Cy7, cPARP AF700 (BD Biosciences), and CD8 Krome Orange (Beckman Coulter). For flow cytometry, 300,000 cells were acquired on Cytoflex (Beckman Coulter). Data were analyzed using Flowjo software. The percentage of CD4^+ T cells that were positive for IFNγ and IL 4 were reported.

The target in test [2] is T1, ITK (Mus musculus, UniProt Q03526).
T1 construct: from tissue; host or cells: splenocytes of dosed C57Bl/6 mice
T1 sequence (Q03526 1-625): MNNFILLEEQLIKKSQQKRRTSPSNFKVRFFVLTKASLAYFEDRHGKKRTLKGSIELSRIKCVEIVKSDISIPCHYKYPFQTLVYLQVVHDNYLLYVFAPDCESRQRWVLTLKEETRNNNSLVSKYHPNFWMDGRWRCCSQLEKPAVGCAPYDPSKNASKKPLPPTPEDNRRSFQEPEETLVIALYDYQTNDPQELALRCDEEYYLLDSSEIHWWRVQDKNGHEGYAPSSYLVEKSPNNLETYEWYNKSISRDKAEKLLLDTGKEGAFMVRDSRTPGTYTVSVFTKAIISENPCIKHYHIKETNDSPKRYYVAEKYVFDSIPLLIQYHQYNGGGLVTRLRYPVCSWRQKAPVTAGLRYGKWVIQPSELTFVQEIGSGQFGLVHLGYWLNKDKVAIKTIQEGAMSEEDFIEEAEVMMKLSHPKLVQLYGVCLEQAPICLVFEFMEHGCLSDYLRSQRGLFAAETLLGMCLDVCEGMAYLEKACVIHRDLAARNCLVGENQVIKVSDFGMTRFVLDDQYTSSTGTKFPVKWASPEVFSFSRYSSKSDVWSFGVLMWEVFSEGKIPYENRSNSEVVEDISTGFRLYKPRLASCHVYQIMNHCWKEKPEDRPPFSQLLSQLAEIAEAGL
In words: ITK occupancy in mouse splenocytes. Type of test: in vivo. The note with it: for receptor occupancy at 50 mg/kg: po. How it is done: The active site occupancy of ITK by a covalent inhibitor was measured using an irreversibly bound biotinylated probe in an immuno-electrochemiluminescence assay. The binding of an inhibitor and the probe to the ATP binding site is mutually exclusive. In lysates of immune cell lines or immune cells collected from treated animals, the biotinylated probe reacts with free (uninhibited) ITK and is subsequently captured on a streptavidin-coated surface and quantified. The free ITK in each sample is normalized by dividing it by either the lysate protein concentration (BCA protein assay, Pierce) or cell count of the sample. Normalized free ITK values are generated for samples collected prior to and after treatment from which occupancy was calculated using equation 7. Single cell suspensions of Jurkat cells, mouse splenocytes, dog PBMC or purified normal human T cells were prepared. Cell lysis was performed using a buffer containing CelLytic M (Sigma Aldrich) supplemented with protease and phosphatase inhibitors (Pierce). The cell pellet resuspended in lysis buffer was incubated at room temperature for 30 minutes when the lysate was clarified by centrifugation at 20,000×g for 5 minutes at 4° C. A solution of the biotinylated probe CP-613 (27.5 nM final, FIG. 14B) was added to the lysate and incubated with mixing for 60 minutes at room temperature. The lysate mixture (35 μL) was transferred in duplicate to separate wells of a blocked streptavidin-coated plate (Mesoscale Diagnostics) then incubated at room temperature with mixing for 60 minutes. The lysate mixture was removed from the plate and the wells were washed with three rounds of PBS/Tween 20 buffer (Thermo Scientific). Rabbit polyclonal anti-ITK antibody solution (Abcam) was dispensed into the wells of the plate and incubated at room temperature with mixing for 60 minutes. The antibody solution was removed from the wells and washed with three rounds of PBS/Tween 20 buffer. Anti-rabbit antibody (goat) sulfo-TAG (Mesoscale Diagnostics) was dispensed into the wells of the plate then incubated at room temperature with mixing for 60 minutes. The antibody solution was removed from the plate and the wells washed with three rounds of PBS/Tween 20 buffer. Read buffer (Mesoscale Diagnostics) diluted two-fold with water was dispensed into the wells of the plate which was read immediately using an MESO Quickplex SQ 120 instrument.
Male C57Bl/6 mice (6-8 weeks of age) were purchased from Charles River Laboratories. […] At scheduled time points mice were euthanized by asphyxiation by CO2 and their spleens were collected immediately and placed into ice cold PBS (N=4/timepoint). All animal procedures were conducted in accordance with a protocol approved by the IACUC committee at Corvus Pharmaceuticals.

The subject of test [3] is NK cells with anti-CD20 bound Jeko target cells. The experiment in a line: NK-mediated ADCC. Type of test: cell-based, human. The note with it: 1 μM, 18 hours. How it is done: FIGS. 9A-9B show selective Inhibition of ITK preserved NK-mediated ADCC. FIG. 9A: Lymphocyte subsets (5 donors/cell type) were purified from the peripheral blood of 22 healthy donors. The expression of ITK and RLK, relative to the house keeping gene IPO8, were determined by qPCR. FIG. 9B: Peripheral blood NK cells from 7 healthy donors were co-cultured at a 10:1 ratio with anti-CD20 bound target cells (B-cell lymphoma line Jeko) and with inhibitors for 18 hours. Cell lysis was detected by viability dye using flow cytometry. The % dead target cells in samples treated with DMSO were set as the maximum lysis (100%).
NK cells express both ITK and RLK (FIG. 9A). […] Peripheral blood NK cells from 7 healthy donors were co-cultured with an anti-CD20 bound target B-cell line at a ratio of 10:1 for 18 hours in the presence of the inhibitors over a range of concentrations up to 1 μM. Cell lysis was detected by flow cytometry using viability dye staining.

Test [4] concerns Th1, Th17, CD4+ effector cells, eosinophils. The experiment in a line: Blood and tumor cell changes in treated lymphoma patients. Type of test: in vivo, human.

Each structure is given as a SMILES string. Entries after “also recorded” stand apart in the source; their conditions may differ. Bounds are passed on as bounds.

As to `C=CC(=O)N1CCCN(C(=O)c2cc(Sc3cnc(NC(=O)C4CC4)s3)c(C)cc2OC)C[C@H]1C` [CPI-818], the “effect on IFNγ production” value in test [1] (1 μM, average across samples) amounted to 19%. In test [1] (10 μM), the IFNγ-positivity result is “robustly inhibited”. Further, the “effect on percentage of IFNγ+CD4+ T cells” value in test [1] (up to 1 μM, average) is listed as less than 20%. For the same compound, the receptor occupancy at 300 mg/kg/day in test [2] (mouse, chow formulation, 300 mg/kg/day) lay within 86 to 95%. For the same compound, the receptor occupancy at 50 mg/kg in test [2] (mouse, 50 mg/kg BID PO, 2 h after dosing) is 95%; in test [2] (mouse, 50 mg/kg BID PO, 12 h, prior to second dose) it was 36%; in test [2] (mouse, single 50 mg/kg PO, 24 h) it was 17%; in test [2] (mouse, single 50 mg/kg PO, first 8 h), 87 to 98%. Besides, in test [2] (single 50 mg/kg PO, first 8 h, 50 mg/kg), the “ITK occupancy in splenocytes” value is more than 87%. Moreover, the ITK occupancy entry in test [2] (single dose, 30 to 120 min) is recorded as “essentially complete ITK occupancy”. Moreover, in test [3], the “decrease of ADCC” value turned out to be 20%. In addition, the “CD4+ effector cells” value in test [4] (blood and tumor, 200 mg BID) was “increases”. Also, in test [4] (lymphoma patient), the Th17 pro-inflammatory cells entry is listed as “decrease”. Further, in test [4] (lymphoma patient, blood/tumor), the Th1 cells result was “increases”. The eosinophils entry in test [4] (patient on therapy) is given as “decreased while on therapy; also recorded: marked reduction”.
